# Measured values taken from publication PMC11877530, “Heterologous Expression and Characterization of Estercin A, a Class II Lanthipeptide Derived from Clostridium estertheticum CF016, with Antimicrobial Activity against Clinically Relevant Pathogens” (Journal of Natural Products, 2025).
# How the values were obtained:
# C. perfringens = details: reported value, ref not given; cited from earlier work
# L. lactis MG1363 [1] = test: Fluorescence microscopy assay (SYTO-9/PI) for membrane pore formation; type: cell-based, Lactococcus lactis; details: L. lactis MG1363, peptide at 2-fold MIC, SYTO-9 and 5 μM PI, 15 min room temperature
# Method: An overnight culture of L. lactis MG1363 was added to the GM17 broth to a final concentration of 1% (v/v) and grown to an OD600 of 0.8. The culture was centrifuged at 6,000 rpm for 5 min and washed three times in the MHB medium. […] Simultaneously, 5 μM PI and SYTO 9 were added to the samples. After incubation at room temperature for 15 min, the samples were centrifuged, and the supernatant was removed. And the cells were washed three times with MHB. After that, the harvest cells were loaded on 1.5% agarose pads and analyzed by a DeltaVision Elite microscope (Applied Precision).
# [2] = tested on: Enterococcus faecium LMG16003 (VRE); details: LMG16003, 18 h
# [3] = tested on: Enterococcus faecalis LMG16216 (VRE); details: LMG16216, 18 h
# [4] = tested on: Staphylococcus aureus LMG15975 (MRSA); details: LMG15975, 18 h
# [5] = Thermal stability (remaining antimicrobial activity); type: physicochemical; details: 4 h at 95 °C; read-out antimicrobial activity on L. lactis MG1363 agar; three biological replicates
# Gram-positive strains = type: cell-based
# [6] = tested on: Staphylococcus aureus LMG10147; details: LMG10147, 18 h
# [7] = tested on: Clostridium botulinum CECT551; details: Reinforced Clostridium Medium, Coy Anaerobic Chamber, 18 h, 37 °C, three biological replicates
# [8] = Spot-on-lawn-based lipid II binding (competition) assay; parameters: species or system Lactococcus lactis; details: spot-on-lawn on L. lactis MG1363 GM17 agar; estercin A 8 μg spotted adjacent to lipid II (300 μM, 3 μL); nisin positive, daptomycin negative control
# Method: The binding of the peptides to pure lipid II ([…]) was tested by the spot-on-the- lawn assay. Here, nisin and daptomycin were used for comparison.[51]
# [9] = tested on: Lactococcus lactis MG1363; details: 18 h
# L. lactis MG1363 [10] = test: Time killing assay; type: cell-based, Lactococcus lactis; details: L. lactis MG1363, 5 × 10^5 CFU/mL, 10-fold the MIC, GM17, 30 °C, CFU counts, triplicate
# Method: Time-killing assays were conducted according to the previously described protocol.[57] Briefly, an overnight culture of L. lactis MG1363 was diluted 50-fold in GM17 and incubated at 30 °C. The cells were grown for about 3 h to an OD600 of 0.5, and then the cell concentration was adjusted to 5 × 10^5 CFU/mL. […] Untreated cells were used as a control. At predetermined time points, 50 μL was taken from each sample, and undiluted and 10-fold serially diluted suspensions were plated on GM17 agar plates. After the overnight incubation at 30 °C, the colonies on the plates were counted and then calculated as the colony-forming units per milliliter. The experiment was carried out in triplicate.
# [11] = tested on: Clostridium tetani CECT4629; details: Reinforced Clostridium Medium, Coy Anaerobic Chamber, 18 h, 37 °C, three biological replicates
# [12] = pH stability (remaining antimicrobial activity); details: pH 2, 4, 7 or 10 adjusted with HCl or NaOH; read-out antimicrobial activity on L. lactis MG1363 agar; three biological replicates
# [13] = tested on: Listeria monocytogenes LMG10470; details: LMG10470, 18 h
# [14] = tested on: Clostridium perfringens CECT376; details: Reinforced Clostridium Medium, Coy Anaerobic Chamber, 18 h, 37 °C, three biological replicates
# [15] = tested on: Bacillus cereus ATCC14579; details: ATCC14579, 18 h
compound,measurement,setting,value
ruminococcin A,MIC,C. perfringens,75 µg/mL
C=C1NC(=O)[C@H](C(C)C)NC(=O)C2CSC[C@@H](C(=O)N[C@@H](CCCCN)C(=O)O)NC(=O)[C@H](CSC(C)C3NC(=O)[C@H](Cc4ccccc4)NC(=O)C(NC(=O)[C@@H](NC(=O)[C@@H](NC(=O)[C@@H](NC(=O)CNC(=O)CNC(=O)CN)C(C)C)[C@@H](C)CC)[C@@H](C)O)C(C)SC[C@H](NC(=O)[C@H](CCC(=O)O)NC(=O)[C@H](Cc4c[nH]cn4)NC3=O)C(=O)N[C@@H](Cc3ccc(O)cc3)C(=O)N[C@@H](Cc3ccc(O)cc3)C(=O)N[C@@H](CC(N)=O)C(=O)N2)NC(=O)CNC(=O)CNC(=O)[C@H](Cc2c[nH]c3ccccc23)NC(=O)[C@H](CO)NC(=O)[C@H](C)NC(=O)[C@@H]2CCCN2C1=O (some centres unmarked) [estercin A],Membrane pore-forming ability,L. lactis MG1363 [1],cannot form pores on the membrane of target cells
same,MIC,[2],64 µg/mL
same,MIC,[3],64 µg/mL
same,MIC,[4],4 µg/mL
same,Reduction of antimicrobial activity after 95 °C exposure,[5],less than 30%
same,Antimicrobial activity against selected Gram-positive strains,Gram-positive strains,broad spectrum of activity
same,MIC,[6],16 µg/mL
same,MIC,[7],32 µg/mL
same,Lipid II binding,[8],binds to lipid II
same,MIC,[9],4 µg/mL
same,Rate of killing,L. lactis MG1363 [10],slower rate of killing
same,MIC,[11],4 µg/mL
same,pH stability: activity retained after incubation,[12],retained most of their activity
same,MIC,[13],>64 µg/mL
same,MIC,[14],1 µg/mL
same,MIC,[15],8 µg/mL
